Legend:
[1] = system: chemically-induced breast tumours; assay: Prophylaxis of chemically-induced breast tumours (dimethylbenz(a)anthracene); format: in vivo, Female Sprague-Dawley rats; settings: 11 weeks
Experimental: (B) The activity in the prevention of chemically-induced breast tumours can be determined according to the following procedure. Female Sprague-Dawley rats are kept under temperature-controlled and light-controlled conditions, with free access to drinking water and feed. At the age of 50 days 15 mg of dimethylbenz(a)anthracene disolved in arachis oil are administered to each rat by means of a probang. The treatment with the test compounds begins 1 day after the administration of the carcinogen. The body weights of the test animals are recorded and the tumours are palpated weekly and measured with a vernier caliper. The volumes are calculated according to the formula [formula] in which D is the larger diameter of the tumour ellipsoid and d is the smaller diameter of the tumour ellipsoid. After 11 weeks the test is terminated and evaluated. In this test there are used in addition to 30 control animals, which receive exclusively normal feed the following two groups of test animals:
1. 33 rats to which are administered daily 30 mg/kg of test compound mixed with the feed.
2. 36 rats to which are administered daily 90 mg/kg of test compound mixed with the feed.

[2] = system: testosterone-stimulated sebum secretion; assay: Inhibition of sebum production in the rat; format: in vivo, rat (castrated male); settings: 100 μg/rat p.o., daily for 14 days
Experimental: (E) The activity of the compounds I on sebum secretion in rats was determined according to the following procedure. Male rats of approximately 50-60 g body weight were castrated at the age of 21-22 days. One week after this operation the rats were washed in a cleansing solution in order to remove sebum which was excreted prior to the test period. Only the carrier materials used were administered to one group of rats. A further group of rats also simultaneously received 100 μg of testosterone propionate in 0.2 ml of sesame oil per rat and day. To a further group of rats there were administered daily per rat 100 μg of testosterone propionate in 0.2 ml of sesame oil subcutaneously and the test compounds in various dosages in 0.2 ml of propylene glycol orally. The rats were thus-treated for 14 days. On the 15th day the sebum from the skin surface and the pelt was removed by immersing the entire body of the test animals in a determined volume of acetone and bathing therein for 2 minutes. An aliquot of the solvent bath was evaporated and the solid residue was determined gravimetrically. The inhibition of the testosterone-stimulated increase in the serum secretion in comparison to the corresponding values from rats treated only with testosterone propionate was used as the measurement for the activity.

[3] = system: squamous metaplasia of the vaginal epithelium; assay: Antimetaplastic activity in the rat (hormone-induced squamous metaplasia of the vaginal epithelium); format: in vivo, Female Holtzmann rats; settings: oral; all-trans-retinoic acid = 1; from average effective dosages (Behrens and Karber)
From the text: (D) The antimetaplastic activity can also be determined in rats according to the following method. Female Holtzmann rats weighing approximately 100 g are ovarectomized under Thiogenal narcosis after an adaptation period of 8 days and are used in the test after a further 14 days. In each case two animals are placed in a cage with free access to feed which contains approximately 2000 IU of vitamin A determined analytically. Prior to the oral administration of the test compound the animals are treated subcutaneously each day on 6 successive days with 1 μg of estradiol benzoate and 250 μg of testosterone propionate dissolved in 0.1 ml of sesame oil. […] 2 days after the oral administration of the test substance the result of the reaction is again read off on the vaginal epithelium. The area method according to Behrens and Karber is employed to calculate the average effective dosages.

[4] = system: keratin-filled utriculi of the rhino mouse; assay: Anti-keratinizing activity in the rhino mouse; format: in vivo
From the text: (A) The antikeratinizing activity can be determined on the rhino mouse model according to the following procedure. The skin of the rhino mouse is characterized by the presence of keratin-filled utriculi of the epidermis and subcutaneous cysts, both of which are derived from hair follicles. The administration of retinoids leads to a hyperproliferation of the epidermis and of the epithelial lining of the utriculi. The thickening of the epidermis and the reduction in the size of the utriculi lead to a normalization of the altered structure of the epithelial layer. The daily topical application of 0.1 ml/cm^2 skin of the rhino mouse of a 3% acetone solution of an active test compound over a period of 3 weeks or the thrice weekly oral administration in arachis oil over a period of weeks leads to a significant proliferation of the epidermis and a striking reduction of the keratin-filled utriculi.

[5] = system: transplantable chondrosarcoma of the rat; assay: Activity on transplantable chondrosarcoma of the rat; format: in vivo, rat (albino rats); settings: five times per week for 24 days
Experimental: (C) Furthermore, the activity on tumours can be determined on the transplantable chondrosarcoma of the rat according to the following method. The solid tumour of a donor animal is finely minced and suspended in phosphate buffer/sodium chloride solution. 0.5 ml of the 30% tumour suspension is implanted subcutaneously into albino rats.
The transplanted rats are divided into test groups of in each case 8 animals. The test compounds are suspended in arachis oil and administered orally five times per week for 24 days. The tumours are excised and weighed on day 24. The results are expressed in the quotient C/T which is calculated as follows: [formula]

Row | Compound | Average number of tumours per rat ([1]; 30 mg/kg p.o. daily in feed) | Average tumour volume per rat in mm^3 [% of controls] ([1]; 30 mg/kg p.o. daily in feed) | Rats with tumours ([1]; 30 mg/kg p.o. daily in feed) | Average number of tumours per rat ([1]; 90 mg/kg p.o. daily in feed) | Average tumour volume per rat in mm^3 [% of controls] ([1]; 90 mg/kg p.o. daily in feed) | Rats with tumours ([1]; 90 mg/kg p.o. daily in feed) | Inhibition of testosterone-stimulated sebum secretion [2] | Relative activity [3] | Diameter of the utriculus ([4]; 400 mg/kg p.o.) | Reduction (of the diameter of the utriculus) ([4]; 400 mg/kg p.o.) | Quotient C/T of tumour weight of the untreated control animals and of the treated animals ([5]; 120 mg/kg p.o.) | Diameter of the utriculus ([4]; 133 mg/kg p.o.) | Reduction (of the diameter of the utriculus) ([4]; 133 mg/kg p.o.) | Quotient C/T of tumour weight of the untreated control animals and of the treated animals ([5]; 40 mg/kg p.o.)
1 | C/C(=C\c1ccc(F)cc1)c1ccc2c(c1)C(C)(C)CCC2(C)C [a, (E)-6-(p-fluoro-α-methylstyryl)-1,2,3,4-tetrahydro-1,1,4,4-tetramethylnaphthalene] | 47 % of controls | 22 % of controls | 72 % of controls | 42 % of controls | 22 % of controls | 69 % of controls | 67% | 0.87 | 117 μm | 21% | – | – | – | –
2 | CC1=C(/C=C/C(C)=C/C=C/C(C)=C/C(=O)O)C(C)(C)CCC1 [all-Trans-retinoic acid, reference compound] | – | – | – | – | – | – | – | 1 | – | – | – | – | – | –
3 | C/C(=C\c1ccc(Br)cc1)c1ccc2c(c1)C(C)(C)CCC2(C)C [b, (E)6-(p-Bromo-methylstyryl)-1,2,3,4-tetrahydro-1,1,4,4-tetramethylnaphthaene] | 87 % of controls | 90 % of controls | 106 % of controls | 87 % of controls | 43 % of controls | 99 % of controls | 65% | 0.77 | 131 μm | 19% | 1.6 | – | – | –
4 | COc1ccc(/C=C(\C)c2ccc3c(c2)C(C)(C)CCC3(C)C)cc1 [c, 1,2,3 4-tetrahydro-6-[(E)-p-methoxy-α-methylstyryl]-1,1,4,4-tetramethylnaphthalene] | 56 % of controls | 78 % of controls | 92 % of controls | 43 % of controls | 32 % of controls | 85 % of controls | – | 1.04 | 61 μm | 51% | 24.0 | 91 μm | 27% | 2.0
5 | C/C(=C\c1ccccc1)c1ccc2c(c1)C(C)(C)CC2(C)C [d, 1,1,3,3-tetramethyl-5-[(E)-α-methylstyryl]indane] | – | – | – | – | – | – | – | – | – | – | – | 125 μm | 27% | –
6 | C/C(=C\c1ccc(I)cc1)c1ccc2c(c1)C(C)(C)CCC2(C)C [e, (E)-6-[p-iodo-α-methylstyryl]-1,2,3,4-tetrahydro-1,1,4,4-tetramethylnaphthalene] | – | – | – | – | – | – | 71% | – | – | – | – | – | – | –
7 | C/C(=C\c1ccc(Cl)cc1)c1ccc2c(c1)C(C)(C)CCC2(C)C [f, (E)-6-[p-chloro-α-methylstyryl]-1,2,3,4-tetrahydro-1,1,4,4-tetramethylnaphthalene] | – | – | – | – | – | – | – | – | – | – | 1.6 | – | – | –
8 | CCCCCCCCc1cc2c(cc1C(C)=Cc1ccccc1)C(C)(C)CCC2(C)C [g, 1,2,3,4-tetrahydro-1,1,4,4-tetramethyl-6-(α-methylstyryl)-7-octylnaphthalene] | – | – | – | – | – | – | 71% | – | – | – | – | – | – | –
